Values joined by “and” are separate entries in the source; they are usually repeats but may differ in a detail not shown here. Identical values can stand only once. Each block holds one compound with its values, some of them ahead of it.
Experiments:
Type in all cases: cell-based
Saos-2 cell line = assay: MTT assay, toxicity (cell viability), Saos-2
Procedure: (§1) The MTT assay measures cell proliferation as well as reduction in cell viability when metabolic events lead to apoptosis or necrosis. It can also be used to assess the rate of survival of a given cell line when it is incubated in the presence of xenobiotics. The reduction of tetrazolium salts is accepted as a reliable way to analyse cell proliferation. The yellow tetrazolium MTT (3-(4,5-dimethylthiazolyl-2)-2,5-diphenyltetrazolium bromide) is reduced by metabolically active cells and results in the intracellular formation of purple formazan that can be spectrophotometrically measured after solubilisation with DMSO.
(§2) The MTT assay was used in this invention to assess the toxicity of compounds at different concentrations. To analyse their potential impairment in cell viability, compounds were added to Saos-2 and U937 cell lines at different concentrations and incubated at different times. Results are expressed by percentage cell viability.

[1] = test system: Caspase activity, Saos-2 cell extracts; assay: Caspase inhibition assay, Saos-2 cell extracts; conditions: for inhibition at 1 µM: Homo sapiens; for % Inh. caspase: 50 μM drug-eq.; for % Caspase inhibition: 5 μM
Procedure: (§3) The time-dependent inhibition of caspase induced by the compounds described in this invention was analysed. […] Caspase activity was assayed using Saos-2 or U937 cell extracts and Ac-DEVD-afc (N-acetyl-Asp-Glu-Val-Asp-afc(7-amino-4-trifluoromethyl coumarin)) as substrate (20 μM). Caspase activity was continuously monitored by the liberation of fluorescent afc using a Cytofluor 4000 fluorimeter (excitation 400 nm; emission 508 nm) for 1 hour. The effect of the compounds on the caspase activity was expressed as the percentage of inhibition in the fluorescence signal of treated cells vs. the non-treated cells (control).

Caspase activity, HeLa = assay: Caspase inhibition assay, HeLa; conditions: for inhibition at 1 µM / inhibition at 5 µM: Homo sapiens; for inhibition at 5 µM / % Caspase inhibition: 5 μM
U937 cell line = assay: MTT assay, toxicity (cell viability), U937
Procedure: as §1, §2

[2] = test system: Caspase activity, U937 cell extracts; assay: Caspase inhibition assay, U937 cell extracts; conditions: for inhibition at 1 µM / inhibition at 5 µM: Homo sapiens, U-937; for % Inh. caspase: 50 μM drug-eq.; for inhibition at 5 µM / % Caspase inhibition: 5 μM
Procedure: as §3

Caspase activity, U2-OS = assay: Caspase inhibition assay, U2-OS; conditions: for inhibition at 1 µM / inhibition at 5 µM: Homo sapiens, U2OS; for inhibition at 5 µM / % Caspase inhibition: 5 μM
[3] = test system: Apaf-1 induced apoptosis, U937 cells; assay: Inhibition of Apaf-1-induced apoptosis, cellular assay, U937; conditions: U937 treated with apoptosome activator, 50 μM drug-eq
Procedure: (§4) The time-dependent inhibition of caspase induced by the compounds described in this invention was analysed. Cell lines were grown in the presence or absence of compounds (50 μM) at different times. Caspase activity was assayed using Saos-2 or U937 cell extracts and Ac-DEVD-afc (N-acetyl-Asp-Glu-Val-Asp-afc(7-amino-4-trifluoromethyl coumarin)) as substrate (20 μM). Caspase activity was continuously monitored by the liberation of fluorescent afc using a Cytofluor 4000 fluorimeter (excitation 400 nm; emission 508 nm) for 1 hour. The effect of the compounds on the caspase activity was expressed as the percentage of inhibition in the fluorescence signal of treated cells vs. the non-treated cells (control).
(§5) The activity of the compounds regards their specific target within the apoptotic machinery was assessed. Apaf-1 oligomerisation is a molecular event that leads to the activation of the apoptosome formation, which ends up in the induction of apoptosis. These experiments were performed in cell-free and in cellular assays.
(§6) For the cellular assays, Saos-2 and U937 cells were treated with an apoptosome activator (Nguyen and Wells, Proc. Natl. Acad. Sci. USA 2003, 100:7533-7538), which specifically induces Apaf-1 oligomerisation. […] The capacity of the compounds of inhibiting the Apaf-1 induced apoptosis was analysed by the inhibition of caspase activity (see above).

[4] = test system: Apaf-1 induced apoptosis, Saos-2 cells; assay: Inhibition of Apaf-1-induced apoptosis, cellular assay, Saos-2; conditions: Saos-2 treated with apoptosome activator, 50 μM drug-eq
Procedure: as §4, §5, §6

Compound: NC(=O)CN(CCc1ccc(Cl)cc1Cl)C(=O)C1CC(=O)N(CCc2ccc(Cl)cc2Cl)CC(=O)N1CCC(c1ccccc1)c1ccccc1 (stereo not shown) [I.1, 1-[2-(2,4-Dichlorophenyl)ethyl]-4-(3,3-diphenylpropyl)-3,7-dioxo[1,4]-diazepane-5-carboxylic acid carbamoylmethyl-[2-(2,4-dichlorophenyl)-ethyl]amide]
% Cell viability (Saos-2 cell line; Saos-2, 24 h, 1 μM): 99%
% Cell viability (Saos-2 cell line; Saos-2, 24 h, 5 μM): 100%
% Cell viability (Saos-2 cell line; Saos-2, 24 h, 10 μM): 96% and 100%
% Cell viability (Saos-2 cell line; Saos-2, 24 h, 25 μM): 63%
% Cell viability (Saos-2 cell line; Saos-2, 24 h, 50 μM): 19%
% Cell viability (Saos-2 cell line; Saos-2, 48 h, 1 μM): 100% and 97%
% Cell viability (Saos-2 cell line; Saos-2, 48 h, 5 μM): 100% and 94%
% Cell viability (Saos-2 cell line; Saos-2, 48 h, 10 μM): 100% and 97%
% Cell viability (Saos-2 cell line; Saos-2, 48 h, 25 μM): 19%
% Cell viability (Saos-2 cell line; Saos-2, 48 h, 50 μM): 11%
% Cell viability (Saos-2 cell line; Saos-2, 72 h, 1 μM): 89%
% Cell viability (Saos-2 cell line; Saos-2, 72 h, 5 μM): 88%
% Cell viability (Saos-2 cell line; Saos-2, 72 h, 10 μM): 80%
% Cell viability (Saos-2 cell line; Saos-2, 72 h, 25 μM): 8%
inhibition at 1 µM ([1]; Saos-2, 24 h): 21%
inhibition at 1 µM ([1]; Saos-2, 48 h): 17%
inhibition at 1 µM ([1]; Saos-2, 72 h): 4%
inhibition at 1 µM (Caspase activity, HeLa; 24 h): 29%
inhibition at 5 µM (Caspase activity, HeLa; 24 h): 31%
inhibition at 1 µM (Caspase activity, HeLa; 48 h): 75%
inhibition at 5 µM (Caspase activity, HeLa; 48 h): 78%
inhibition at 1 µM (Caspase activity, HeLa; 72 h): 34%
inhibition at 5 µM (Caspase activity, HeLa; 72 h): 33%
% Cell viability (U937 cell line; U937, 24 h, 1 μM): 100%
% Cell viability (U937 cell line; U937, 24 h, 5 μM): 98% and 90%
% Cell viability (U937 cell line; U937, 24 h, 10 μM): 95% and 87%
% Cell viability (U937 cell line; U937, 24 h, 25 μM): 59%
% Cell viability (U937 cell line; U937, 24 h, 50 μM): 27%
% Cell viability (U937 cell line; U937, 48 h, 1 μM): 100%
% Cell viability (U937 cell line; U937, 48 h, 5 μM): 97% and 94%
% Cell viability (U937 cell line; U937, 48 h, 10 μM): 99% and 83%
% Cell viability (U937 cell line; U937, 72 h, 1 μM): 98%
% Cell viability (U937 cell line; U937, 72 h, 5 μM): 89%
% Cell viability (U937 cell line; U937, 72 h, 10 μM): 67%
inhibition at 1 µM ([2]; U937, 24 h): 0%
inhibition at 5 µM ([2]; U937, 24 h): 19%
inhibition at 1 µM ([2]; U937, 48 h): 14%
inhibition at 5 µM ([2]; U937, 48 h): 19%
inhibition at 1 µM ([2]; U937, 72 h): 12%
inhibition at 5 µM ([2]; U937, 72 h): 46%
inhibition at 1 µM (Caspase activity, U2-OS; 24 h): 0%
inhibition at 5 µM (Caspase activity, U2-OS; 24 h): 0%
inhibition at 1 µM (Caspase activity, U2-OS; 48 h): 58%
inhibition at 5 µM (Caspase activity, U2-OS; 48 h): 54%
inhibition at 1 µM (Caspase activity, U2-OS; 72 h): 1%
inhibition at 5 µM (Caspase activity, U2-OS; 72 h): 25%

Compound: Poly-L-glutamic acid-[1-[2-(2,4-Dichlorophenyl)ethyl]-3-(3,3-diphenyl-propyl)-3,7-dioxo[1,4]diazepane-5-carboxylic acid {[({[(5-amino-1-carbamoylpentylcarbamoyl)methyl]-carbamoyl}methyl)carbamoyl]methyl}-[2-(2,4-dichlorophenyl)ethyl]amide] conjugate [III.1]
% Cell viability (Saos-2 cell line; Saos-2, 24 h, 20 μM drug-eq.): 96%
% Cell viability (Saos-2 cell line; Saos-2, 24 h, 50 μM drug-eq.): 99%
% Cell viability (Saos-2 cell line; Saos-2, 24 h, 100 μM drug-eq.): 93%
% Cell viability (Saos-2 cell line; Saos-2, 24 h, 250 μM drug-eq.): 75%
% Cell viability (Saos-2 cell line; Saos-2, 24 h, 500 μM drug-eq.): 35%
% Cell viability (Saos-2 cell line; Saos-2, 48 h, 20 μM drug-eq.): 95%
% Cell viability (Saos-2 cell line; Saos-2, 48 h, 50 μM drug-eq.): 87%
% Cell viability (Saos-2 cell line; Saos-2, 48 h, 100 μM drug-eq.): 95%
% Cell viability (Saos-2 cell line; Saos-2, 72 h, 20 μM drug-eq.): 86%
% Cell viability (Saos-2 cell line; Saos-2, 72 h, 50 μM drug-eq.): 63%
% Cell viability (Saos-2 cell line; Saos-2, 72 h, 100 μM drug-eq.): 68%
% Inh. caspase activity ([3]; 24 h): 27%
% Inh. caspase activity ([3]; 48 h): 95%
% Inh. caspase ([1]; Saos-2, 24 h): 67%
% Inh. caspase ([1]; Saos-2, 48 h): 72%
% Inh. caspase ([1]; Saos-2, 72 h): 100%
% Inh. caspase activity ([4]; 24 h): 22%
% Inh. caspase activity ([4]; 48 h): 54%
% Cell viability (U937 cell line; U937, 24 h, 20 μM drug-eq.): 98%
% Cell viability (U937 cell line; U937, 24 h, 50 μM drug-eq.): 96%
% Cell viability (U937 cell line; U937, 24 h, 100 μM drug-eq.): 84%
% Cell viability (U937 cell line; U937, 24 h, 250 μM drug-eq.): 50%
% Cell viability (U937 cell line; U937, 24 h, 500 μM drug-eq.): 27%
% Inh. caspase ([2]; U937, 24 h): 74%
% Inh. caspase ([2]; U937, 48 h): 85%
% Inh. caspase ([2]; U937, 72 h): 100%

Compound: NC(=O)CN(CC1CCCO1)C(=O)C1CC(=O)N(CCc2ccc(Cl)cc2Cl)CC(=O)N1CCC(c1ccccc1)c1ccccc1 (stereo not shown) [I.4, 1-[2-(2,4-Dichlorophenyl)ethyl]-4-(3,3-diphenylpropyl)-3,7-dioxo[1,4]diazepane-5-carboxylic acid carbamoylmethyl(tetrahydrofuran-2-ylmethyl)amide]
% Cell viability (Saos-2 cell line; Saos-2, 24 h, 1 μM): 100%
% Cell viability (Saos-2 cell line; Saos-2, 24 h, 5 μM): 97%
% Cell viability (Saos-2 cell line; Saos-2, 24 h, 10 μM): 100%
% Cell viability (Saos-2 cell line; Saos-2, 48 h, 1 μM): 100%
% Cell viability (Saos-2 cell line; Saos-2, 48 h, 5 μM): 98%
% Cell viability (Saos-2 cell line; Saos-2, 48 h, 10 μM): 99%
inhibition at 1 µM ([1]; Saos-2, 24 h): 55%
inhibition at 1 µM ([1]; Saos-2, 48 h): 9%
inhibition at 1 µM (Caspase activity, HeLa; 24 h): 48%
inhibition at 1 µM (Caspase activity, HeLa; 48 h): 14%
inhibition at 1 µM (Caspase activity, HeLa; 72 h): 35%
% Cell viability (U937 cell line; U937, 24 h, 1 μM): 100%
% Cell viability (U937 cell line; U937, 24 h, 5 μM): 99%
% Cell viability (U937 cell line; U937, 24 h, 10 μM): 87%
% Cell viability (U937 cell line; U937, 48 h, 1 μM): 99%
% Cell viability (U937 cell line; U937, 48 h, 5 μM): 94%
% Cell viability (U937 cell line; U937, 48 h, 10 μM): 95%
inhibition at 1 µM ([2]; U937, 24 h): 0%
inhibition at 1 µM ([2]; U937, 48 h): 12%
inhibition at 1 µM ([2]; U937, 72 h): 0%
inhibition at 1 µM (Caspase activity, U2-OS; 24 h): 0%
inhibition at 1 µM (Caspase activity, U2-OS; 48 h): 23%
inhibition at 1 µM (Caspase activity, U2-OS; 72 h): 54%

% Caspase inhibition (Caspase activity, HeLa; 24 h): 6%
% Caspase inhibition (Caspase activity, HeLa; 48 h): 7%
% Caspase inhibition (Caspase activity, HeLa; 72 h): 11%
% Caspase inhibition (Caspase activity, U2-OS; 24 h): 0%
% Caspase inhibition (Caspase activity, U2-OS; 48 h): 31%
% Caspase inhibition (Caspase activity, U2-OS; 72 h): 33%
Compound: COc1ccccc1CCN(CC(N)=O)C(=O)C1CC(=O)N(CCc2ccc(Cl)cc2Cl)CC(=O)N1CCC(c1ccccc1)c1ccccc1 (stereo not shown) [I.7, 1-[2-(2,4-Dichlorophenyl)ethyl]-4-(3,3-diphenylpropyl)-3,7-dioxo[1,4]diazepane-5-carboxylic acid carbamoylmethy-[2-(2-methoxyphenyl)ethyl]amide]
% Cell viability (Saos-2 cell line; Saos-2, 24 h, 1 μM): 95%
% Cell viability (Saos-2 cell line; Saos-2, 24 h, 5 μM): 99%
% Cell viability (Saos-2 cell line; Saos-2, 24 h, 10 μM): 98%
% Cell viability (Saos-2 cell line; Saos-2, 48 h, 1 μM): 100%
% Cell viability (Saos-2 cell line; Saos-2, 48 h, 5 μM): 100%
% Cell viability (Saos-2 cell line; Saos-2, 48 h, 10 μM): 100%
% Caspase inhibition ([1]; Saos-2, 24 h): 0%
% Caspase inhibition ([1]; Saos-2, 48 h): 24%
% Cell viability (U937 cell line; U937, 24 h, 1 μM): 99%
% Cell viability (U937 cell line; U937, 24 h, 5 μM): 95%
% Cell viability (U937 cell line; U937, 24 h, 10 μM): 93%
% Cell viability (U937 cell line; U937, 48 h, 1 μM): 100%
% Cell viability (U937 cell line; U937, 48 h, 5 μM): 100%
% Cell viability (U937 cell line; U937, 48 h, 10 μM): 97%
% Caspase inhibition ([2]; U937, 24 h): 10%
% Caspase inhibition ([2]; U937, 48 h): 8%
% Caspase inhibition ([2]; U937, 72 h): 2%

Source: patent US20090298781A1, “COMPOUNDS FOR THE INHIBITION OF APOPTOSIS” (CONSEJO SUPERIOR DE, priority 2005, published 2009)
